Experiment [1] concerns the target Mu-type opioid receptor (Mus musculus, UniProt P42866). Description: Displacement of [3H]DAMGO from mu opioid receptor in CD1 mouse whole brain minus cerebellum membranes by liquid scintillation counting. The format is tissue-based, Membrane. (In general: Displacement assays read how much labelled ligand stays bound in the presence of the test substance.)
Experiment [2] deals with Delta-type opioid receptor (Mus musculus, UniProt P32300). In words: Displacement of [3H]DPDPE from delta opioid receptor in CD1 mouse whole brain minus cerebellum membranes by liquid scintillation counting. The format is tissue-based, Membrane.
For experiment [3], the species on record is Mus musculus. In words: Selectivity ratio of Ki for delta opioid receptor in CD1 mouse whole brain minus cerebellum membranes to Ki for mu opioid receptor in CD1 mouse whole brain minus cerebellum membranes. The experiment is classed as tissue-based.
The test system of experiment [4] is Mus musculus. In words: Analgesic activity in acute pain CD1 mouse model assessed as withdrawal latency from radiant heat source at 40 to 80 mg/kg, ip by tail-flick assay. The format is functional, organism-based. On the technique in general: In hot-plate and tail-flick tests a longer latency is read as antinociception.
Experiment [5] concerns Mus musculus. In words: Inhibition of morphine-induced analgesia in CD1 mouse model at 80 mg/kg, ip pretreated 30 mins before 5 mg/kg, sc morphine injection and measured 30 to 120 mins after morphine treatment by tail-flick assay relative to control. The format is functional, organism-based.
Experiment [6] relates to Mus musculus. Description: Inhibition of morphine-induced analgesia in CD1 mouse model at 40 mg/kg, ip pretreated 30 mins before 5 mg/kg, sc morphine injection and measured 30 to 120 mins after morphine treatment by tail-flick assay relative to control. The experiment is classed as functional, organism-based.

The source made the active and inactive calls. The rule behind the calls is not given here. Bounds are passed on as bounds.

`COc1ccc(-c2cc(=O)c3c(O)c(OC)c(O)cc3o2)cc1OC` [EUPATILIN]: the values for the Ki in experiment [1] and in experiment [2] were 28 µM and 12 µM, respectively. Further, the Ratio Ki in experiment [3] amounted to 0.43.
On to `COc1c(OC)c(O)c2c(=O)cc(-c3ccc(O)c(O)c3)oc2c1OC` [SIDERITIFLAVONE], for which the values for the inhibition constant (Ki) in experiment [1] and in experiment [2] were 18.5 µM and 12.5 µM, respectively. In experiment [3], the Ratio Ki was determined as 0.68.
With `COc1cc(-c2cc(=O)c3c(O)c(OC)c(OC)c(OC)c3o2)ccc1O`, the inhibitory constant (Ki) (in general, a dissociation constant, usually derived from enzyme kinetics or from competition with a known ligand) in experiment [1] was above 50 µM; in experiment [2], 37.5 µM.
In the case of `C=CC(C)(O)CC[C@@]1(C)[C@H](C)CC[C@]2(C)[C@@H]1C[C@@H](O)[C@H]1O[C@]12C` (stereo partly drawn), the Ki in experiment [1] is above 50 µM; in experiment [2], 25 µM.
Consider `COc1c(OC)c(O)c2c(=O)cc(-c3ccc(O)cc3)oc2c1OC` [XANTHOMICROL], for which the Ki in experiment [1] is 0.83 µM; in experiment [2], 3.6 µM. The Ratio Ki in experiment [3] is 4.36. The outcome in experiment [4] was inactive. For the same compound, the inhibition result in experiment [5] was “Active”. Besides, the inhibition result in experiment [6] was “inactive”.
On to `C=CC(C)(O)CC[C@@]1(C)[C@H](C)CC[C@@]2(C)C(C)=CC(=O)C[C@H]12` (stereo partly drawn), for which the Ki in experiment [1] is 40.5 µM; in experiment [2], 23.5 µM.
Turning to `COc1ccc(-c2cc(=O)c3c(O)c(OC)c(OC)c(OC)c3o2)cc1` [GARDENIN B], the Ki in experiment [1] and in experiment [2] was above 50 µM each time.
On to `COc1ccc(-c2cc(=O)c3c(OC)c(OC)c(OC)c(OC)c3o2)cc1` [TANGERETIN], for which the values for the Ki in experiment [1] and in experiment [2] were 16.3 µM and 7 µM, respectively. In addition, the Ratio Ki in experiment [3] came to 0.43.

(Values after ChEMBL document CHEMBL3392994, “Methoxyflavones from Stachys glutinosa with binding affinity to opioid receptors: in silico, in vitro, and in vivo studies” (J Nat Prod, 2015).)
